Data published in patent US20180289678A1, “PHARMACEUTICAL COMPOSITION, PHARMACEUTICAL DOSAGE FORM, PROCESS FOR THEIR PREPARATION, METHODS FOR TREATING AND USES THEREOF” (Boehringer Ingelheim International GmbH, priority 2009, published 2018).
Where two headings read alike, the source gives them in different places.

Tests used:
[1] = system: Zucker Diabetic Fatty (ZDF) rats; assay: Oral glucose tolerance test in ZDF rats; assay type: in vivo, rat; details: oral glucose load
Method: According to a first example an oral glucose tolerance test is performed in overnight fasted 9-weeks old male Zucker Diabetic Fatty (ZDF) rats (ZDF/Crl-Lepr^fa). A pre-dose blood sample is obtained by tail bleed. Blood glucose is measured with a glucometer, and the animals are randomized for blood glucose (n=5/group). Subsequently, the groups receive a single oral administration of either vehicle alone (0.5% aqueous hydroxyethylcellulose containing 3 mM HCl and 0.015% Polysorbat 80) or vehicle containing the SGLT2 inhibitor. The animals receive an oral glucose load (2 g/kg) 30 min after compound administration. Blood glucose is measured in tail blood 30 min, 60 min, 90 min, 120 min, and 180 min after the glucose challenge. Glucose excursion is quantified by calculating the reactive glucose AUC. The data are presented as mean ±SEM. The two-sided unpaired Student t-test is used for statistical comparison of the control group and the active groups.
Compound (I.9) (1-chloro-4-(β-D-glucopyranos-1-yl)-2-[4-((S)-tetrahydrofuran-3-yloxy)-benzyl]-benzene) was orally administered to ZDF rats at doses of 0.3 mg/kg, 3 mg/kg or 30 mg/kg body weight. Compound (I.9) reduced glucose excursion by 15% at 0.3 mg/kg (not significant), by 62% at 3 mg/kg (p<0.001) and by 89% at 30 mg/kg (p<0.001).

[2] = Study .1: single dose study in healthy volunteers, pharmacokinetic parameters; assay type: in vivo, human; details: Study .1, fasted
Method: 5. Pharmacokinetic Parameters
The pharmacokinetic parameters of pharmaceutical compositions and pharmaceutical dosage forms are assessed in healthy volunteer and patient populations. In the studies shown below, the participants fasted on the day of sampling, unless as otherwise stated (see for example study .3). The active substance in the studies below is the compound (I.9), preferably in the crystalline form (I.9X), and the dose of active ingredient is indicated in mg.
For the quantification of plasma concentrations of the active ingredient, 2.7 mL of blood was collected and transferred into an EDTA (ethylendiaminetetraacetic acid)-anticoagulant blood drawing tube. The EDTA-anticoagulated blood samples were centrifuged immediately after collection. Centrifugation lasted for about 10 minutes (at about 2,000×gf to 4,000×gf) at 4-8° C. or within 30 minutes while stored on ice. Concentrations of active substance in EDTA human plasma samples were quantitated using a HPLC/MS/MS method. The assay method comprised a solid phase supported liquid-liquid extraction of human plasma coupled with HPLC/MS/MS determination of the extracted samples. The HPLC/MS/MS assay was validated for the range of 1.11 to 1110 nM in human plasma.
Study .1: Single dose study in a healthy volunteer population of N=72. Healthy volunteers were administered tablets as described in Example 10 (section Examples of formulations).
AUC0-inf:area under the concentration-time curve of the analyte in plasma over the time interval from 0 extrapolated to infinity.
Cmax: maximum concentration of the analyte in plasma.
Tmax: time from dosing to maximum concentration.

- AUC0-inf Max ([2]; 2.5 mg single dose): 0.448 µM·h
- AUC0-inf Min ([2]; 2.5 mg single dose): 0.336 µM·h
- AUC0-inf,norm Max ([2]; 2.5 mg single dose): 179 nmol·h/L/mg
- AUC0-inf,norm Median ([2]; 2.5 mg single dose): 159 nmol·h/L/mg
- AUC0-inf,norm Min ([2]; 2.5 mg single dose): 134 nmol·h/L/mg
- AUC0-inf,norm gMean ([2]; 2.5 mg single dose): 158 nmol·h/L/mg
- Cmax,norm Max ([2]; 2.5 mg single dose): 24 nmol/L/mg
- Cmax,norm Median ([2]; 2.5 mg single dose): 22 nmol/L/mg
- Cmax,norm Min ([2]; 2.5 mg single dose): 17 nmol/L/mg
- Cmax,norm gMean ([2]; 2.5 mg single dose): 21 nmol/L/mg
- tmax Max ([2]; 2.5 mg single dose): 2.98 h
- tmax Min ([2]; 2.5 mg single dose): 0.983 h
- Cmax ([2]; 2.5 mg single dose, read-out: Cmax Max): 60.8 nM
- Cmax ([2]; 2.5 mg single dose, read-out: Cmax Min): 42.8 nM
- AUC0-inf Max ([2]; 10 mg single dose): 2.18 µM·h
- AUC0-inf Min ([2]; 10 mg single dose): 1.17 µM·h
- AUC0-inf,norm Max ([2]; 10 mg single dose): 218 nmol·h/L/mg
- AUC0-inf,norm Median ([2]; 10 mg single dose): 178 nmol·h/L/mg
- AUC0-inf,norm Min ([2]; 10 mg single dose): 117 nmol·h/L/mg
- AUC0-inf,norm gMean ([2]; 10 mg single dose): 169 nmol·h/L/mg
- Cmax,norm Max ([2]; 10 mg single dose): 27 nmol/L/mg
- Cmax,norm Median ([2]; 10 mg single dose): 24 nmol/L/mg
- Cmax,norm Min ([2]; 10 mg single dose): 14 nmol/L/mg
- Cmax,norm gMean ([2]; 10 mg single dose): 22 nmol/L/mg
- tmax Max ([2]; 10 mg single dose): 2.03 h
- tmax Min ([2]; 10 mg single dose): 0.983 h
- Cmax ([2]; 10 mg single dose, read-out: Cmax Max): 268 nM
- Cmax ([2]; 10 mg single dose, read-out: Cmax Min): 143 nM
- AUC0-inf Max ([2]; 25 mg single dose): 4.91 µM·h
- AUC0-inf Min ([2]; 25 mg single dose): 2.66 µM·h
- AUC0-inf,norm Max ([2]; 25 mg single dose): 196 nmol·h/L/mg
- AUC0-inf,norm Median ([2]; 25 mg single dose): 159 nmol·h/L/mg
- AUC0-inf,norm Min ([2]; 25 mg single dose): 106 nmol·h/L/mg
- AUC0-inf,norm gMean ([2]; 25 mg single dose): 150 nmol·h/L/mg
- Cmax,norm Max ([2]; 25 mg single dose): 27 nmol/L/mg
- Cmax,norm Median ([2]; 25 mg single dose): 21 nmol/L/mg
- Cmax,norm Min ([2]; 25 mg single dose): 13 nmol/L/mg
- Cmax,norm gMean ([2]; 25 mg single dose): 20 nmol/L/mg
- tmax Max ([2]; 25 mg single dose): 3.02 h
- tmax Min ([2]; 25 mg single dose): 1.00 h
- Cmax ([2]; 25 mg single dose, read-out: Cmax Max): 678 nM
- Cmax ([2]; 25 mg single dose, read-out: Cmax Min): 334 nM
- AUC0-inf Max ([2]; 50 mg single dose): 11.5 µM·h
- AUC0-inf Min ([2]; 50 mg single dose): 7.27 µM·h
- AUC0-inf,norm Max ([2]; 50 mg single dose): 230 nmol·h/L/mg
- AUC0-inf,norm Median ([2]; 50 mg single dose): 166 nmol·h/L/mg
- AUC0-inf,norm Min ([2]; 50 mg single dose): 145 nmol·h/L/mg
- AUC0-inf,norm gMean ([2]; 50 mg single dose): 169 nmol·h/L/mg
- Cmax,norm Max ([2]; 50 mg single dose): 29 nmol/L/mg
- Cmax,norm Median ([2]; 50 mg single dose): 22 nmol/L/mg
- Cmax,norm Min ([2]; 50 mg single dose): 14 nmol/L/mg
- Cmax,norm gMean ([2]; 50 mg single dose): 22 nmol/L/mg
- tmax Max ([2]; 50 mg single dose): 3.00 h
- tmax Min ([2]; 50 mg single dose): 0.750 h
- Cmax ([2]; 50 mg single dose, read-out: Cmax Max): 1450 nM
- AUC(0-inf) ([2]; human, plasma, oral, 2.5 mg, 2.5 mg single dose, read-out: AUC0-inf Mean): 0.396 µM·h
- AUC(0-inf) ([2]; human, plasma, oral, 2.5 mg, 2.5 mg single dose, read-out: AUC0-inf Median): 0.398 µM·h
- AUC(0-inf) ([2]; human, plasma, oral, 2.5 mg, 2.5 mg single dose, read-out: AUC0-inf gMean): 0.394 µM·h
- Cmax ([2]; human, plasma, oral, 2.5 mg, 2.5 mg single dose, read-out: Cmax Mean): 53.2 nM
- Cmax ([2]; human, plasma, oral, 2.5 mg, 2.5 mg single dose, read-out: Cmax Median): 55 nM
- Cmax ([2]; human, plasma, oral, 2.5 mg, 2.5 mg single dose, read-out: Cmax gMean): 52.9 nM
- Tmax ([2]; human, plasma, oral, 2.5 mg, 2.5 mg single dose, read-out: tmax Mean): 1.83 h
- Tmax ([2]; human, plasma, oral, 2.5 mg, 2.5 mg single dose, read-out: tmax Median): 1.75 h
- Tmax ([2]; human, plasma, oral, 2.5 mg, 2.5 mg single dose, read-out: tmax gMean): 1.72 h
- AUC(0-inf) ([2]; human, plasma, oral, 10 mg, 10 mg single dose, read-out: AUC0-inf Mean): 1.73 µM·h
- AUC(0-inf) ([2]; human, plasma, oral, 10 mg, 10 mg single dose, read-out: AUC0-inf Median): 1.78 µM·h
- AUC(0-inf) ([2]; human, plasma, oral, 10 mg, 10 mg single dose, read-out: AUC0-inf gMean): 1.69 µM·h
- Cmax ([2]; human, plasma, oral, 10 mg, 10 mg single dose, read-out: Cmax Mean): 226 nM
- Cmax ([2]; human, plasma, oral, 10 mg, 10 mg single dose, read-out: Cmax Median): 239 nM
- Cmax ([2]; human, plasma, oral, 10 mg, 10 mg single dose, read-out: Cmax gMean): 221 nM
- Tmax ([2]; human, plasma, oral, 10 mg, 10 mg single dose, read-out: tmax Mean): 1.42 h
- Tmax ([2]; human, plasma, oral, 10 mg, 10 mg single dose, read-out: tmax Median): 1.5 h
- Tmax ([2]; human, plasma, oral, 10 mg, 10 mg single dose, read-out: tmax gMean): 1.38 h
- AUC(0-inf) ([2]; human, plasma, oral, 25 mg, 25 mg single dose, read-out: AUC0-inf Mean): 3.83 µM·h
- AUC(0-inf) ([2]; human, plasma, oral, 25 mg, 25 mg single dose, read-out: AUC0-inf Median): 3.98 µM·h
- AUC(0-inf) ([2]; human, plasma, oral, 25 mg, 25 mg single dose, read-out: AUC0-inf gMean): 3.75 µM·h
- Cmax ([2]; human, plasma, oral, 25 mg, 25 mg single dose, read-out: Cmax Mean): 505 nM
- Cmax ([2]; human, plasma, oral, 25 mg, 25 mg single dose, read-out: Cmax Median): 520 nM
- Cmax ([2]; human, plasma, oral, 25 mg, 25 mg single dose, read-out: Cmax gMean): 490 nM
- Tmax ([2]; human, plasma, oral, 25 mg, 25 mg single dose, read-out: tmax Mean): 2.19 h
- Tmax ([2]; human, plasma, oral, 25 mg, 25 mg single dose, read-out: tmax Median): 2.05 h
- Tmax ([2]; human, plasma, oral, 25 mg, 25 mg single dose, read-out: tmax gMean): 2.06 h
- AUC(0-inf) ([2]; human, plasma, oral, 50 mg, 50 mg single dose, read-out: AUC0-inf Mean): 8.58 µM·h
- AUC(0-inf) ([2]; human, plasma, oral, 50 mg, 50 mg single dose, read-out: AUC0-inf Median): 8.29 µM·h
- AUC(0-inf) ([2]; human, plasma, oral, 50 mg, 50 mg single dose, read-out: AUC0-inf gMean): 8.46 µM·h
- Cmax ([2]; human, plasma, oral, 50 mg, 50 mg single dose, read-out: Cmax Mean): 1110 nM
- Cmax ([2]; human, plasma, oral, 50 mg, 50 mg single dose, read-out: Cmax Median): 1100 nM
- Cmax ([2]; human, plasma, oral, 50 mg, 50 mg single dose, read-out: Cmax gMean): 1080 nM
- Tmax ([2]; human, plasma, oral, 50 mg, 50 mg single dose, read-out: tmax Mean): 1.75 h
- Tmax ([2]; human, plasma, oral, 50 mg, 50 mg single dose, read-out: tmax Median): 1.5 h
- Tmax ([2]; human, plasma, oral, 50 mg, 50 mg single dose, read-out: tmax gMean): 1.59 h
Compound: OC[C@H]1O[C@@H](c2ccc(Cl)c(Cc3ccc(O[C@H]4CCOC4)cc3)c2)[C@H](O)[C@@H](O)[C@@H]1O [Compound (I.9), 1-chloro-4-(β-D-glucopyranos-1-yl)-2-[4-((S)-tetrahydrofuran-3-yloxy)-benzyl]-benzene]
- reduced glucose excursion (baseline-corrected glucose AUC) ([1]; 0.3 mg/kg oral, not significant): 15%
- reduced glucose excursion (baseline-corrected glucose AUC) ([1]; 3 mg/kg oral, p<0.001): 62%
- reduced glucose excursion (baseline-corrected glucose AUC) ([1]; 30 mg/kg oral, p<0.001): 89%
